Data reported in US6384083B1, “USE OF ADAMANTANE AMINES OR STRUCTURALLY SIMILAR COMPOUNDS FOR COMBATING BORNA DISEASE VIRUS AND FOR THE PREVENTION AND TREATMENT OF AFFECTIVE DISEASES AND OTHER DISORDERS ASSOCIATED WITH BDV INFECTIONS IN HUMANS AND ANIMALS” (priority 1996, dated 2002).
Counter-ions that a name gives are not always drawn.

Columns and labels:
influenza A strains = conditions: cited from earlier work
influenza B strains = conditions: cited from earlier work
[1] = tested on: human Borna disease virus strain BDV-Hu-H1; test: Inhibition of BDV infection of young rabbit brain cells after one-hour pre-treatment; type: cell-based, Borna disease virus (human strain) in rabbit brain cells; conditions: one-hour pre-treatment before infection, 100±10 ffu/mL BDV-Hu-H1, read-out: concentration that inhibits the infection of rabbit brain cells with human BDV to the extent of 50%
Experimental: (§1) Young rabbit brain cells were treated with amantadine sulfate and, in a comparison experiment, with meso-inositol. After this treatment, both samples were treated for 1 hour with a human Borna disease virus strain (100±10 ffu/mL with BDV-Hu-H1 (regarding this strain, refer also to L. Bode, et al., Mol. Psychiatry 1996, 1(3), 200-212)).
(§2) The highest in vitro dose, which permits normal, unimpaired cell growth, is 1.2 μg/mL, relative to the cell system.

rabbit brain cells = test: Cell growth tolerance in the rabbit brain cell system; type: cell-based; conditions: relative to the cell system
Experimental: as §1, §2

[2] = tested on: human oligodendroglia cells (OL cells); test: Cell growth of OL cells under amantadine sulfate; conditions: 1.2 μg/mL, whole period observed
Experimental: (§3) On the other side, freshly infected OL cells were treated with the same drug dose for 24 hours and then for a further 6 days after the infection.

BDV-Hu-H1 = test: Inhibition of BDV replication in human oligodendroglia (OL) cells; conditions: already infected OL cells, 1.2 μg/mL, 6 days
Experimental: as §3

[3] = tested on: activated BDV infection / depression; test: Treatment of a BDV-infected patient with bipolar disease (severe depressive episode)
[4] = cited from earlier work

NC12CC3CC(CC(C3)C1)C2 [amantadine hydrochloride]
push back of virus production (influenza A strains): by a power of 10 | sensitivity of the virus (influenza B strains): not sensitive

NC12CC3CC(CC(C3)C1)C2 [amantadine sulfate]
IC50 [1]: 0.019 µg/mL | highest in vitro dose which permits normal, unimpaired cell growth (rabbit brain cells): 1.2 µg/mL | effect on cell growth [2]: practically not affected | reduction of the number of infectious viruses (factor) (BDV-Hu-H1): more than 10,000 | Borna virus activity (protein expression in the blood leucocytes) ([3]; after the 11th day of treatment and also 5 months later): could no longer be detected | course of depression under treatment ([3]; from the 8th day to the 11th day, 50 to 200 mg daily): improved dramatically | day of treatment after which discharge from hospital was possible ([3]; patient): 15 days | undesirable side effects ([3]; patient, until now): no undesirable side effects

NC12CC3CC(CC(C3)C1)C2 [amantadine, 1-adamantane amine]
half-lifetime ([4]; in vivo): approximately 15 hours | absorption after oral administration ([4]; oral): absorbed almost completely | depression-free time without hypomanic rebound effect ([3]; patient under therapy): 5 months

CC(N)C12CC3CC(CC(C3)C1)C2 (centres unmarked) [rimantadine, 1-adamantyl-(1-amino) ethane]
excretion / metabolism ([4]; in vivo): metabolized in the liver
